The values below come from patent US7842684B2, “Diphenylazetidinone derivatives possessing cholesterol absorption inhibitor activity” (AstraZeneca AB, priority 2006, dated 2010).

Data set [1] in a line: Absorption in a Caco-2 cells model. It counts as in vitro ADME. Particulars: human. Here is the method: Absorption of the compounds of formula (I) was tested in a Caco-2 cells model (Gastroenterology 1989, 96, 736): […]
Data set [2] concerns 14C-cholesterol absorption. Put plainly: In Vivo Testing of Cholesterol Absorption Inhibitors (A). The settings on record: 0.2 μmol/kg by gavage, procedure A, C57BL/6 female mice. The procedure:
In Vivo Testing of Cholesterol Absorption Inhibitors (A)
C57BL/6 female mice were maintained on regular chow diet and housed in individual cages to collect faeces. Mice were fasted for 3 hours and then gavaged with vehicle or compound. Half an hour later the mice were gavaged with radiolabelled cholesterol. Six hours after the ^14C-cholesterol gavage blood samples were taken via the tail and plasma prepared to determine how much cholesterol were absorbed. 24 hours after the gavage of ^14C-cholesterol the mice were bled and plasma were prepared for analysis. Faeces were collected for 24 hours to assess absorption efficiency.

Broadly, the Papp is a coefficient for how fast a substance crosses the barrier. As to `CS(=O)(=O)NCC#Cc1ccc(N2C(=O)[C@H](SC[C@H](O)c3ccc(F)cc3)[C@H]2c2ccc(OCC(=O)NCC(=O)N[C@H](CC3CCCCC3)C(=O)O)cc2)cc1` [Example 1, N-({4-[(2R,3R)-3-{[(2R)-2-(4-fluorophenyl)-2-hydroxyethyl]thio}-1-(4-{3-[(methylsulfonyl)amino]prop-1-yn-1-yl}phenyl)-4-oxoazetidin-2-yl]phenoxy}acetyl)glycyl-3-cyclohexyl-D-alanine], in data set [1], the Papp amounted to 0.04 ×10⁻⁶ cm/s. Same read-out and setting: in the case of `CC(C)[C@@H](NC(=O)CNC(=O)COc1ccc([C@@H]2[C@@H](SC[C@H](O)c3ccc(F)cc3)C(=O)N2c2ccc(C#CCNS(C)(=O)=O)cc2)cc1)C(=O)O` [Example 2, N-({4-[(2R,3R)-3-{[(2R)-2-(4-fluorophenyl)-2-hydroxyethyl]thio}-1-(4-{3-[(methylsulfonyl)amino]prop-1-yn-1-yl}phenyl)-4-oxoazetidin-2-yl]phenoxy}acetyl)glycyl-D-valine] it was 0.02 ×10⁻⁶ cm/s. On to `CS(=O)(=O)NCC#Cc1ccc(N2C(=O)[C@H](SC[C@H](O)c3ccc(F)cc3)[C@H]2c2ccc(OCC(=O)NCC(=O)O)cc2)cc1` [Example 6, N-({4-[(2R,3R)-3-{[(2R)-2-(4-fluorophenyl)-2-hydroxyethyl]thio}-1-(4-{3-[(methylsulfonyl)amino]prop-1-yn-1-yl}phenyl)-4-oxoazetidin-2-yl]phenoxy}acetyl)glycine], for which, in data set [2], the “inhibition of 14C-cholesterol absorption” value was 90%.
